Test results reported in the METLIN SMRT retention time set (Domingo-Almenara et al. 2019).

experiment: gradient 5% acetonitrile 3 min, to 50% in 2 min, to 85% in 15 min, held 3 min, 100 µL/min; settings: column: Zorbax Extend-C18 2.1 x 50 mm; eluents: water / acetonitrile, 0.1% formic acid
Method in brief: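 Pure standards were analyzed in mixtures of ~100 molecules using HPLC coupled to a quadrupole time-of-flight mass spectrometer, in both positive and negative ionization mode. Separation used a Zorbax Extend-C18 column (2.1 × 50 mm, 1.8 μm) at 100 μL/min, with water and acetonitrile each containing 0.1% formic acid. Dead and dwell volumes were 40 μL and 900 μL, and data were collected over 3 months. Retention time was read from computationally picked adduct peaks, each inspected manually.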

In order of rising RP-LC retention time:
1. O=C(c1ccco1)N1CCC(c2nc(C3CC3)n[nH]2)CC1  521 s
2. O=C(O)c1ccccc1-c1nc2ccccc2[nH]1  537 s
3. COCCN1C(=O)CC[C@]2(C(=O)N(C)CCc3ccccn3)CCCC[C@@H]12  546 s
4. CCOc1ccc(C(=O)Nc2cccnc2)nn1  552 s
5. c1cnc(-c2n[nH]c(C3CCN(Cc4ccsc4)CC3)n2)cn1  559 s
6. CCCN1CCN(C(=O)C2CCN(c3cnn(CCC)c(=O)c3)CC2)CC1  570 s
7. O=C(CN1C(=O)COc2ccc(C(=O)N3CCN(c4ccccn4)CC3)cc21)N1CCCC1  572 s
8. CCC(=O)N1CCN(c2nc(C)cc(N3CCOCC3)n2)CC1  578 s
9. CCc1nc2cc(N3CCC(C(=O)N4CCN(CC)CC4)CC3)cnc2nc1CC  590 s
10. Cc1noc(C)c1S(=O)(=O)N1CC(N(C)Cc2cccnc2)C1  594 s
11. CCc1nnc(-c2ccc(=O)n(CC(=O)N3CCC4(CC3)OCCO4)c2)o1  594 s
12. O=C(CN1CCN(Cc2ccccc2)C1=O)NC1CCN(Cc2ccccc2)CC1  599 s
13. O=C(Nc1nnc(-c2ccncc2)o1)c1cc(=O)c2ccccc2o1  600 s
14. CC1CCN(c2ccc(N3CCN(S(=O)(=O)c4cc(F)ccc4F)CC3)nn2)CC1  606 s
15. COc1ccc(Cl)cc1C(=O)NCCCOc1cccc2cccnc12  611 s
16. COc1ccc(CNC(=O)Cn2c(N3CCCC3)nc(C)cc2=O)cc1  612 s
17. Cc1c(C(=O)N2CCN(C)CC2)cc(-c2ccccc2)n1C  612 s
18. CCc1noc(NC(C)=O)c1-c1ccc(OC)c(S(=O)(=O)N2CCc3ccccc3C2)c1  628 s
19. O=C(NCCCn1cccn1)c1cccc2[nH]cc(CN3CCSCC3)c12  628 s
20. Cc1ccc(NC(=O)Cn2c(N3CCCC3)nc(C)cc2=O)cc1  636 s
21. COc1ccccc1C(=O)N1c2ccccc2NC(=O)CC1C (stereo not drawn)  639 s
22. COc1ccc(C(C)NC(=O)c2ccc3ncnc(N4CCCC4)c3c2)cc1 (stereo not drawn)  646 s
23. Cc1cc(NC(=O)CCCS(=O)(=O)c2ccc(Cl)cc2)n(C)n1  648 s
24. O=C(O)CNC(=O)C1CCN(S(=O)(=O)c2ccc(F)cc2)CC1  652 s
25. Cc1ccc(F)c(NS(=O)(=O)c2cc3n(c2)CCCNC3=O)c1  654 s
26. COc1ccc(OC)c(S(=O)(=O)N2CC(N3CC(C(=O)N4CCCC4)CC3=O)C2)c1 (stereo not drawn)  666 s
27. CCC(C)NC(=O)C1CCN(S(=O)(=O)c2cn(C(C)C)cn2)CC1 (stereo not drawn)  669 s
28. CCCNC(=O)C1CCCN(c2ccc(SCC(=O)Nc3ccccc3Br)nn2)C1 (stereo not drawn)  670 s
29. O=S(=O)(c1cccc(Cl)c1)N1CCC2(CCN(c3cccnc3)C2)C1 (stereo not drawn)  680 s
30. CCn1c(=O)c(N2CCCC(C(=O)NC3CCN(Cc4ccccc4)CC3)C2)nc2ccccc21 (stereo not drawn)  685 s
31. COCCn1c(C)cc(O)c(C(c2ccc(OC)cc2OC)N2CCCCC2)c1=O (stereo not drawn)  688 s
32. CS(=O)(=O)N1CCC(OC2CCN(C(=O)Nc3c(F)cccc3F)CC2)CC1  688 s
33. COCCCNC(=O)CCCn1c2ccccc2c2cnn(C)c(=O)c21  688 s
34. CC1=C(C(=O)N2CCOCC2)C(c2c(F)cccc2Cl)C2=C(CC(C)(C)CC2=O)N1 (stereo not drawn)  690 s
35. Cc1ccn2cc(-c3ccc(NS(=O)(=O)c4cc(Cl)ccc4Cl)cc3)nc2n1  691 s
36. Cc1ccc(NC(=O)Cn2cnc3nc(N4CCC(C(=O)NC5CC5)CC4)sc3c2=O)cc1C  693 s
37. Cc1ccc2nc(-c3cccc(Br)c3)c(C)c(C(=O)O)c2c1  694 s
38. C[C@@H](Cc1ccc(OCC(=O)O)cc1)NC[C@@H](O)c1cccc(Cl)c1  704 s
39. CCc1ccc(NC(=O)Nc2ccc(NC(=O)N3CCC(C(=O)NC)CC3)cc2)cc1  704 s
40. Cc1cc(=O)n(CC(=O)Nc2cccc(Br)c2)c(N2CCOCC2)n1  705 s
41. CCCCN1CC(=O)N(c2ccc(OC)cc2)[C@@H]2CS(=O)(=O)C[C@@H]21  719 s
42. Cc1ccc(C)c(NC(=O)CN2CCC(c3nc(-c4cccs4)no3)CC2)c1  724 s
43. Cc1nn2c(CNC(=O)c3ccco3)c(-c3ccccc3)nc2s1  728 s
44. Cc1ccccc1Nc1c(-c2ccc(N3CCOCC3)cc2)nc2c(C)cccn12  729 s
45. Cc1nn(-c2ccc(-c3ccccc3)nn2)c(C)c1S(=O)(=O)N1CCN(C2CCCCC2)CC1  733 s
46. COc1ccc(N2CCN(c3ncccc3-c3nc(C)no3)CC2)cc1  736 s
47. Cc1ccc(-c2ncccc2CNS(=O)(=O)c2cc(F)ccc2C)cc1  738 s
48. Cc1nc([N+](=O)[O-])cn1-c1nc2ccccn2c1[N+](=O)[O-]  753 s
49. COc1ccc(NC(=O)N2C[C@@H]3C[C@H]2C[C@@H]3NS(=O)(=O)c2ccccc2)c(C)c1  764 s
50. CCN(CC)C(=O)c1cc2c(s1)CCC(C(=O)Nc1ccc(N3CCOCC3)cc1)C2 (stereo not drawn)  767 s
51. CCN(CC)C(=O)CSc1nnc(-c2ccc3c(c2)OCCCO3)n1C(C)C  770 s
52. Cn1cc(SCC(=O)NCc2ccco2)c2ccccc21  778 s
53. Cc1cccc(N2CCN(CCNC(=O)c3cc4sccc4n3C)CC2)c1C  778 s
54. CC(C)n1c(-c2cccc(C(=O)NC3CCCC3)c2)nc2cccnc21  796 s
55. CCCC(=O)Nc1cc2c(cc1N1CCC(C(=O)OCC)CC1)n(C)c(=O)c(=O)n2C  804 s
56. CCCn1c(=O)sc2cc(S(=O)(=O)N3CCC(C(=O)Nc4ccc(C)cn4)CC3)ccc21  808 s
57. CC1=C(c2ccc(F)cc2)S(=O)(=O)N=C1N1CCCN(C(=O)c2ccccc2F)CC1  817 s
58. COc1cccc(-n2c(N3CCCC(C(=O)NCC(C)C)C3)nc3ccsc3c2=O)c1 (stereo not drawn)  818 s
59. COc1ccc(-c2cn3c(CC(=O)Nc4ccc(Br)cc4F)csc3n2)cc1OC  821 s
60. Cc1ccc(Nc2c(-c3ccc(Cl)cc3)nc3ccc(C)cn23)cc1  836 s
61. Cc1ccc(NC(=O)Nc2cnn(-c3ncc(N4CCCC4)cn3)c2)c(Cl)c1  844 s
62. COc1ccc(NS(=O)(=O)c2cc(-c3nnc(C(=O)N4CCCC4)o3)sc2C)c(OC)c1  846 s
63. O=C(NCc1nc(-c2ccc(NS(=O)(=O)c3cccs3)cc2)no1)c1ccccc1  848 s
64. CCOCCn1c(=O)c2c(nc3n2CC(C)CN3c2ccc(OC)cc2)n(C)c1=O (stereo not drawn)  853 s
65. Cc1ccc(NC(=O)C2CCN(C(=O)c3ncn4c3COC(c3ccc(F)cc3)C4)CC2)cc1F (stereo not drawn)  854 s
66. CC(C)n1cnc(S(=O)(=O)N2CCCC(C(=O)Nc3cccc4c3CCCC4)C2)c1 (stereo not drawn)  865 s
67. Cc1ccc(-n2nc(N3CCCC(C(=O)NCc4ccc5c(c4)OCO5)C3)ccc2=O)cc1Cl (stereo not drawn)  875 s
68. COc1cc(-c2nnc(/C=C/c3cccs3)o2)cc(OC)c1OC  886 s
69. Cn1cc(-c2ccccc2)cc1C(=O)NCc1ccc(N2CCOCC2)cc1  892 s
70. Cc1cccc(C(=O)N2CCc3ccc(CNC(=O)NCC4CCCO4)cc32)c1 (stereo not drawn)  894 s
71. CCCNC(=O)c1cn(-c2ccc(-c3nc(C(C)(C)C)no3)cn2)cn1  931 s
72. Cc1cc2c(c(=O)n(-c3ccc(F)cc3)c(=O)n2CC(=O)Nc2ccc(C(F)(F)F)cc2)n1C  942 s
73. CC(C)c1noc(C2(NC(=O)C3CCCC3)CCCCC2)n1  968 s
74. CC(C)c1ccc(CNC(=O)c2ccc3c(c2)N(C)C2CCCCN2C3=O)cc1 (stereo not drawn)  976 s
75. COc1cc2c(cc1CNC(=O)COc1ccc(Cl)cc1)OCCCO2  982 s
76. CC(C)CCNC(=O)C1(C)CN(S(=O)(=O)c2ccccc2)CC(=O)N1c1ccc(Cl)cc1 (stereo not drawn)  992 s
77. CN1C(=O)C2CCCCN2c2ccc(C(=O)NCCC3=CCCCC3)cc21 (stereo not drawn)  993 s
78. Cc1ccc(N2C(=O)C3N=NN(Cc4nc(-c5ccc6c(c5)OCO6)no4)C3C2=O)cc1Cl (stereo not drawn)  1010 s
79. Cc1ccccc1N1CCN(C(=O)c2cn(-c3cc(N4CCSCC4)ncn3)cn2)CC1  1040 s
80. COc1ccc(N2CCN(c3ccc4cc(S(=O)(=O)N5CCC(C)CC5)ccc4n3)CC2)cc1  1060 s
81. COC(=O)c1ccc(CSc2ncnc3c2cnn3-c2ccc(C)cc2C)o1  1070 s
82. Cc1ccc(-c2csc3c(=O)n(CC(=O)OC(C)(C)C)cnc23)cc1  1090 s
83. Cc1nc(-c2ccc(-c3noc(Cc4c[nH]c5ccccc45)n3)cc2)cs1  1090 s
84. Cc1ccc(CN2C(=O)N(c3cccc(F)c3)c3ncccc3S2(=O)=O)cc1  1100 s
85. Clc1ccccc1-c1noc(-c2nc(-c3ccncc3)no2)n1  1130 s
86. CCc1ccc(NS(=O)(=O)c2c(C)sc(C)c2-c2cc(C)[nH]n2)cc1  1130 s
87. Clc1ccc(-c2csc(NCc3ccccc3)n2)cc1  1170 s
88. Cc1ccc(-c2noc(C3CCCN3S(=O)(=O)c3ccc(C)c(C)c3)n2)cc1 (stereo not drawn)  1260 s
